# Results from PMC9971260 (Scientific Reports, 2023).
# Where a name gives a salt, the structure may show the parent alone.
# Key:
# [1] = design: method as in earlier work; settings: cited from earlier work
# [2] = mouse, in vivo, 50 mg/kg; cited from earlier work
# [3] = system: carrageenan-induced hyperalgesia; assay: post-treatment of carrageenan-induced hyperalgesia; format: in vivo, rat; settings: rats
# Procedure: The PWL of untreated rats from the pre-treatment carrageenan study were used as a negative control in this experiment, as well. […] One hind paw was randomly selected to be the observed paw for the entirety of the experiment. Prior to administration of a treatment, the baseline (-23 h) PWL was assessed as described above.
# Twenty-three hours after administration of carrageenan, PWL was assessed (23 h) to confirm induction of hyperalgesia, and to establish the PWL prior to treatment. […] PWL was assessed relative to administration of treatment ([…], 48, 72, and 96 h), and two PWL measurements were taken at each time point for each rat.
# [4] = system: carrageenan-induced paw edema and hyperalgesia; assay: pre-treatment of carrageenan-induced paw edema and hyperalgesia; settings: rats
# COX-1 = settings: read-out: IC50 against COX-1; cited from earlier work
# postoperative pain [5] = assay: post-treatment of postoperative pain (incisional model); format: in vivo, mouse; settings: mice, 5 mg/kg SC daily Days 1 to 7
# Procedure: Thirty-one (31) mice were randomly assigned to one of four treatment groups: vehicle (5 μL/g, SC) (n = 8), UK4b (20 mg/kg, SC) (n = 7), UK4b (10 mg/kg, SC) (n = 8), and morphine (5 mg/kg, SC) (n = 8). This experiment took place over 14 days. […] Similarly, four days before surgery, the animals began acclimation for one hour per day to the mechanical sensitization (allodynia) apparatus before assessment. Mechanical sensitization was measured with a series of 8 von Frey fiber filaments (0.008 g (1.65); 0.02 g (2.36); 0.07 g (2.83); 0.16 g (3.22); 0.4 g (3.61); 1.0 g (4.08); 2.0 g (4.31); 6.0 g (4.74); Stoelting, Wood Dale, IL) using a modified up-down method. For the algorithm, each filament is applied to the plantar surface of the hind paw for five times. If the mouse retracts that hind paw at least three times, that is considered a positive response to the filament, and the next applied filament would be weaker than the last. If the animal retracts the hind paw fewer than three times, this is a negative response, and the next stronger filament is applied. […] Two hours after surgery was complete, PWL was assessed, followed by measurement of mechanical sensitization threshold. […] On Day 9, 48 h after the final treatment was administered on Day 7, PWL and mechanical sensitization threshold were assessed to follow-up with the animals after treatment ceased. […]
# postoperative pain [6] = assay: pre- and post-treatment of postoperative pain (incisional model); format: in vivo, mouse; settings: mice, pretreatment 5 mg/kg SC 2 h before surgery
# Procedure: Twenty-eight (28) mice were randomly assigned to one of four treatment groups: vehicle (5 μL/g, SC) (n = 8), UK4b (20 mg/kg, SC) (n = 7), UK4b (10 mg/kg, SC) (n = 7), and morphine (5 mg/kg, SC) (n = 6). This experiment took place over 14 days. Animals underwent the same acclimation and baseline measurement for PWL and mechanical sensitization threshold as described in the section above on Days -4 to -1. On Day 0, surgery was performed as described above, but each animal received their first treatment two hours prior to surgery (-2 h). Two hours after surgery was complete, PWL was assessed, followed by measurement of mechanical sensitization threshold. Treatment continued once daily from Days 1 through 7. Two hours after drug treatment, PWL and mechanical sensitization threshold are measured. On Day 9, 48 h after the final treatment was administered on Day 7, PWL and mechanical threshold are assessed to follow-up with the animals after treatment ceases. The PWL (seconds) was graphed relative to time (days since surgery). Mechanical sensitization thresholds were graphed as 50% threshold (grams) versus time (days since surgery).
# COX-2 = settings: cited from earlier work
structure (smiles),measurement,setting,value
"CCCCC[C@H](O)/C=C/[C@H]1[C@H](O)CC(=O)[C@@H]1C/C=C\CCCC(=O)O [PGE2, prostaglandin E2]",plasma half-life,[1],2.5 to 5 min
Cc1ccc(-c2cc(C(F)(F)F)nn2-c2ccc(S(N)(=O)=O)cc2)cc1 [celecoxib],stomach tissue damage,[2],caused stomach tissue damage in all mice
NCC1(CC(=O)O)CCCCC1 [gabapentin],"carrageenan-induced hyperalgesia (PWL), post-treatment",[3]; 100 mg/kg IP 23 h after carrageenan,significantly relieved the pain
same,carrageenan-induced hyperalgesia (PWL),[4]; pretreatment 100 mg/kg IP 1 h or 4 h before carrageenan,"similarly relieved the hyperalgesia, but 100 mg/kg gabapentin was not as effective as 10 mg/kg UK4b"
CN1CC[C@]23c4c5ccc(O)c4O[C@H]2[C@@H](O)C=C[C@H]3[C@H]1C5 [morphine],postoperative allodynia (50% mechanical threshold),postoperative pain [5],significantly attenuated
same,postoperative hyperalgesia (PWL),postoperative pain [5],significantly attenuated
same,postoperative allodynia (50% mechanical threshold) on Day 0,postoperative pain [6],did not significantly attenuate the postoperative allodynia
same,postoperative hyperalgesia (PWL) on Day 0,postoperative pain [6],significantly attenuating the postoperative hyperalgesia
"COc1ccc2c3c1O[C@H]1C(=O)CC[C@@]4(O)[C@@H](C2)N(C)CC[C@]314 [oxycodone, Oxycodone hydrochloride]","carrageenan-induced hyperalgesia (PWL), post-treatment",[3]; 5 mg/kg IP 23 h after carrageenan,significantly relieved the pain
same,carrageenan-induced hyperalgesia (PWL),"[4]; pretreatment 5 mg/kg IP, at and after 23 h",still significant pain
same,carrageenan-induced hyperalgesia (PWL),"[4]; pretreatment 5 mg/kg IP, within six hours after carrageenan injection",effectively relieved the pain
CS(=O)(=O)c1ccc(C2=C(c3ccccc3)C(=O)OC2)cc1 [rofecoxib],IC50 against COX-2 (in words),COX-2,low-nanomolar
